These results are taken from ChEMBL document CHEMBL5506024, “Multitarget μ-Opioid Receptor Agonists─Neuropeptide FF Receptor Antagonists Induce Potent Antinociception with Reduced Adverse Side Effects” (J Med Chem, 2024).

The structures appear in SMILES notation. Numbered stars: 1 amine (or outer) side, 2 acyl side, 3 side chain; on linkers, the order of the positions; unused ones are H or OH. Square brackets hold non-standard residues; d marks the D form. Peptide text beside a SMILES is read from it. * marks the point of attachment. Nva(5-(4-Bn-piperidin-1-yl)) = N[C@@H](CCCN1CCC(Cc2ccccc2)CC1)C(=O)O; X2 = O=C1[C@@H](N[*:1])Cc2ccccc2CN1CCCC(=O)[*:2]; X1 = O=C1[C@@H](N[*:1])Cc2ccccc2CN1CCC(=O)[*:2]; Dmt = Cc1cc(O)cc(C)c1C[C@H](N)C(=O)O; d(hArg) = N=C(N)NCCCC[C@@H](N)C(=O)O; Nicotinoyl = O=C(c1cccnc1)*; dOrn = NCCC[C@@H](N)C(=O)O; dNMeA = CN[C@H](C)C(=O)O

The target of experiment [1] is T1, Mu-type opioid receptor (Homo sapiens, UniProt P35372). Briefly: Agonist activity at human MOP expressed in HEK293 cells coexpressing GloSensor-20F assessed as inhibition of forskolin-induced cAMP accumulation. The class given is functional, cell-based. A general note: Changes in cAMP serve as a functional read-out for many G protein-coupled receptors.
Experiment [2] deals with T1, Mu-type opioid receptor. Briefly: Agonist activity at human MOP expressed in HEK293 cells coexpressing GloSensor-20F assessed as inhibition of forskolin-induced cAMP accumulation relative to control. It is filed as functional, cell-based.
The target of experiment [3] is T1, Mu-type opioid receptor. Kind of experiment: Agonist activity at human Rluc8-tagged MOP expressed in HEK293 cells coexpressing eYFP-tagged beta-arrestin-2 assessed as beta-arrestin-2 recruitment incubated for 5 mins by luminometer analysis. The class given is functional, cell-based. (In general: Recruitment of arrestin is a read-out of receptor activation apart from second messengers.)

Experiment [4] concerns the target T1, Mu-type opioid receptor. Briefly: Agonist activity at human Rluc8-tagged MOP expressed in HEK293 cells coexpressing eYFP-tagged beta-arrestin-2 assessed as beta-arrestin-2 recruitment incubated for 5 mins by luminometer analysis relative to control. The class given is functional, cell-based.
The target in experiment [5] is T2, Neuropeptide FF receptor 1 (Homo sapiens, UniProt Q9GZQ6). Kind of experiment: Displacement of [125I]-1DMeNPFF from human NPFFR1 expressed in CHO cell membrane at 0.5 uM incubated for 1 hr by Topcount counting method relative to control. It is filed as cell membranes. A general note: Loss of bound radioactivity is the signal in a displacement assay; it reports binding, not function.

Experiment [6] concerns the target T2, Neuropeptide FF receptor 1. Kind of experiment: Antagonist activity at human NPFFR1 expressed in CHO cell membrane assessed as inhibition of NPVF induced cAMP response at 5 uM incubated for 1 hr by Topcount counting method relative to control. The class given is functional, cell membranes. On the set-up: scale not given: the % may be the effect or the level left.

Experiment [7] deals with T3, Neuropeptide FF receptor 2 (Homo sapiens, UniProt Q9Y5X5). Kind of experiment: Displacement of [125I]-1DMeNPFF from human NPFFR2 expressed in CHO cell membrane at 0.05 uM incubated for 1 hr by Topcount counting method relative to control. The class given is cell membranes. The note with it: filed as antagonist.
For experiment [8], the target named is T3, Neuropeptide FF receptor 2. Briefly: Antagonist activity at human NPFFR2 expressed in CHO cell membrane assessed as inhibition of NPVF induced cAMP response at 5 uM incubated for 1 hr by Topcount counting method relative to control. On the set-up: scale not given: the % may be the effect or the level left. It is filed as functional, cell membranes.

T3 sequence (Q9Y5X5 whole entry): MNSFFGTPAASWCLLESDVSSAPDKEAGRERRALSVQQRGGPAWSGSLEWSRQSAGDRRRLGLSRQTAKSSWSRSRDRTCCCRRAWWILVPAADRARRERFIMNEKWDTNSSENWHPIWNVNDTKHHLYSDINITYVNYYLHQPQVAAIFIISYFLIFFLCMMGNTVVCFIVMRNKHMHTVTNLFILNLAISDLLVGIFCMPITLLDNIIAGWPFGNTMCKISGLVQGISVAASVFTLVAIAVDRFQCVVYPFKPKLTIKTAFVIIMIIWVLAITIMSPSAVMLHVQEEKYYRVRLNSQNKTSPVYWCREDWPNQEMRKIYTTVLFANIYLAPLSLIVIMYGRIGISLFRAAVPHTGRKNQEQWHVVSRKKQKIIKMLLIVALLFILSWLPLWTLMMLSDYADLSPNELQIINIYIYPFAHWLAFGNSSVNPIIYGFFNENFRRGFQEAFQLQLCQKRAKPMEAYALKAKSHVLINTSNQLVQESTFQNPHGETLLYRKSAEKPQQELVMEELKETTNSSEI
T1 sequence (P35372 whole entry): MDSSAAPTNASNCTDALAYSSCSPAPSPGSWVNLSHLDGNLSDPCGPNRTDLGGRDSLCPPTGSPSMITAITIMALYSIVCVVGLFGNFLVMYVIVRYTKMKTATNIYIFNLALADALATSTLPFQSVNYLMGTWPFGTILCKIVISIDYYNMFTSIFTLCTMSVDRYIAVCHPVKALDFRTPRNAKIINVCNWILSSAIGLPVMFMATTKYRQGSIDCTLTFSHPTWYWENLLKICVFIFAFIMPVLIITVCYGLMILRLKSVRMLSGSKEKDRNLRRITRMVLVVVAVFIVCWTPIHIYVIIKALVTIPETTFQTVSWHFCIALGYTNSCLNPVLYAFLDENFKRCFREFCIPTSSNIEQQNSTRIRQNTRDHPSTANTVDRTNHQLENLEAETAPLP
T2 sequence (Q9GZQ6 whole entry): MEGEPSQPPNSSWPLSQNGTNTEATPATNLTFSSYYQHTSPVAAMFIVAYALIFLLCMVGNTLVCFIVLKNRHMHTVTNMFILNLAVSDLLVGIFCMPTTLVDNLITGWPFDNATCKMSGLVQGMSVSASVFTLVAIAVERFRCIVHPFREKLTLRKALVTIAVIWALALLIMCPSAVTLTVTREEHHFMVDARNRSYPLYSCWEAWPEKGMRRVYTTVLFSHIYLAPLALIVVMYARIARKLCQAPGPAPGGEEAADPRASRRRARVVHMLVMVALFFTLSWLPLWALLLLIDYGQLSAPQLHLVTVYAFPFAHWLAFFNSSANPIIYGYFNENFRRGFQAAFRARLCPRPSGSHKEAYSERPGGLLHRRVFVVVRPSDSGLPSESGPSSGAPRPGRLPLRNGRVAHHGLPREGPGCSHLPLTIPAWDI

Turning to `Cc1cc(O)cc(C)c1C[C@H](N)C(=O)N[C@H](CCCN)C(=O)N[C@H]1Cc2ccccc2CN(CCC(=O)N[C@@H](CCCN2CCC(Cc3ccccc3)CC2)C(=O)N[C@@H](Cc2ccccc2)C(N)=O)C1=O` (H-[Dmt][dOrn][X1][Nva(5-(4-Bn-piperidin-1-yl))]F-NH2), the EC50 in experiment [1] came to 34 nM; in experiment [3] (read-out: EC50), 2350 nM. For the same compound, the Emax in experiment [2] (filed as agonist) stood at 78%; in experiment [4], 20%. The Activity amounted to 45% in experiment [5] (filed as antagonist), 22% in experiment [6], 55% in experiment [7] and 37% in experiment [8].

As for `Cc1cc(O)cc(C)c1C[C@H](N)C(=O)N[C@H](CCCCNC(=O)c1cccnc1)C(=O)N[C@H]1Cc2ccccc2CN(CCC(=O)N[C@@H](CCCN2CCC(Cc3ccccc3)CC2)C(=O)N[C@@H](Cc2ccccc2)C(N)=O)C1=O` (H-[Dmt][dK](Nicotinoyl)[X1][Nva(5-(4-Bn-piperidin-1-yl))]F-NH2), the Emax was determined as 92% in experiment [2] (filed as agonist) and 16% in experiment [4]. For the same compound, in experiment [3] (read-out: EC50), the concentration for a half-maximal effect (EC50) was determined as 12 nM. The Activity in experiment [5] (filed as antagonist) amounted to 74%; in experiment [6] it was 33%; in experiment [7] it was 70%; in experiment [8] (filed as antagonist), 59%.

Regarding `Cc1cc(O)cc(C)c1C[C@H](N)C(=O)N1CCC[C@@H]1C(=O)N[C@H]1Cc2ccccc2CN(CC(=O)N[C@@H](CCCN2CCC(Cc3ccccc3)CC2)C(=O)N[C@@H](Cc2ccccc2)C(N)=O)C1=O`, the half-maximal effective concentration (EC50) in experiment [1] was found to be 21 nM; in experiment [3] (read-out: EC50), 162 nM. The Emax in experiment [2] (filed as agonist) was 85%; in experiment [4] it was 27%.

Consider `Cc1cc(O)cc(C)c1C[C@H](N)C(=O)N[C@H](CCCNC(=N)N)C(=O)N[C@@H](Cc1ccccc1)C(=O)N(C)CCC(=O)N[C@@H](CCCN1CCC(Cc2ccccc2)CC1)C(=O)N[C@@H](Cc1ccccc1)C(N)=O`, for which the 50% effective concentration (EC50) came to 8.9 nM in experiment [1] and 45 nM in experiment [3] (read-out: EC50).

As for `Cc1cc(O)cc(C)c1C[C@H](N)C(=O)N[C@H](CCCNC(=N)N)C(=O)N[C@H]1Cc2ccccc2CN(CCC(=O)N[C@H](CCCN2CCC(Cc3ccccc3)CC2)C(=O)N[C@@H](Cc2ccccc2)C(N)=O)C1=O`, the values for the concentration giving a half-maximal response (EC50) in experiment [1] and in experiment [3] (read-out: EC50) were 14 nM and 178 nM, respectively. The results for the maximum response (Emax) in experiment [2] (filed as agonist) and in experiment [4] (filed as agonist) were 95% and 76%, respectively.

For the compound `Cc1cc(O)cc(C)c1C[C@H](N)C(=O)N[C@H](CCCNC(=N)N)C(=O)N[C@H]1Cc2c(ccc3ccccc23)CN(CCC(=O)N[C@@H](CCCN2CCC(Cc3ccccc3)CC2)C(=O)N[C@@H](Cc2ccccc2)C(N)=O)C1=O`, the figures for the EC50 in experiment [1] and in experiment [3] (read-out: EC50) were 5.3 nM and 56 nM, respectively. The Emax in experiment [2] (filed as agonist) stood at 111%; in experiment [4] (filed as agonist), 60%.

Turning to `Cc1cc(O)cc(C)c1C[C@H](N)C(=O)N[C@H](CCCNC(=N)N)C(=O)N[C@H]1Cc2c(ccc3ccccc23)CN(CC(=O)N[C@@H](CCCN2CCC(Cc3ccccc3)CC2)C(=O)N[C@@H](Cc2c[nH]c3ccccc23)C(N)=O)C1=O`, the 50% effective concentration (EC50) in experiment [1] was 10.5 nM; in experiment [3] (hek293), “Not Active”. For the same compound, the Emax in experiment [2] (filed as agonist) was determined as 65%. Moreover, the Activity in experiment [5] (filed as antagonist) worked out at 68%; in experiment [6] (filed as antagonist), 62%; in experiment [7], 84%; in experiment [8] (filed as antagonist), 83%.

`Cc1cc(O)cc(C)c1C[C@H](N)C(=O)N[C@H](CCCNC(=N)N)C(=O)N[C@H]1Cc2c(ccc3ccccc23)CN(CC(=O)N[C@@H](CCCN2CCC(Cc3ccccc3)CC2)C(=O)N[C@@H](Cc2ccccc2)C(N)=O)C1=O`: the maximum response (Emax) worked out at 90% in experiment [2] (filed as agonist) and 22% in experiment [4]. Besides, the Activity in experiment [5] was 35%; in experiment [6], 22%; in experiment [7], 96%; in experiment [8] (filed as antagonist) it was 91%.

On to `Cc1cc(O)cc(C)c1C[C@H](N)C(=O)N[C@H](CCCNC(=N)N)C(=O)N[C@@H](Cc1ccccc1)C(=O)N(C)[C@@H](C)C(=O)N[C@@H](CCCN1CCC(Cc2ccccc2)CC1)C(=O)N[C@@H](Cc1ccccc1)C(N)=O`, for which the EC50 in experiment [1] is 17 nM; in experiment [3] (read-out: EC50) it was 92 nM. For the same compound, the Emax in experiment [2] (filed as agonist) was 99%; in experiment [4] (filed as agonist), 87%.

Regarding `Cc1cc(O)cc(C)c1C[C@H](N)C(=O)N(C)[C@H](C)C(=O)N[C@H]1Cc2ccccc2CN(CCC(=O)N[C@@H](CCCN2CCC(Cc3ccccc3)CC2)C(=O)N[C@@H](Cc2ccccc2)C(N)=O)C1=O` (H-[Dmt][dNMeA][X1][Nva(5-(4-Bn-piperidin-1-yl))]F-NH2), the maximal effect (Emax) in experiment [2] (filed as agonist) amounted to 64%; in experiment [4], 12%. Moreover, the Activity was found to be 43% in experiment [5] (filed as antagonist), 75% in experiment [6] (filed as antagonist), 48% in experiment [7] and 45% in experiment [8] (filed as antagonist).

In the case of `Cc1cc(O)cc(C)c1C[C@H](N)C(=O)N[C@H](CCCCN)C(=O)N[C@H]1Cc2ccccc2CN(CCC(=O)N[C@@H](CCCN2CCC(Cc3ccccc3)CC2)C(=O)N[C@@H](Cc2ccccc2)C(N)=O)C1=O` (H-[Dmt][dK][X1][Nva(5-(4-Bn-piperidin-1-yl))]F-NH2), the values for the concentration giving a half-maximal response (EC50) in experiment [1] and in experiment [3] (hek293) were 30 nM and “Not Active”, respectively. The Emax in experiment [2] (filed as agonist) is 67%.

With `Cc1cc(O)cc(C)c1C[C@H](N)C(=O)N[C@H](CCCNC(=N)N)C(=O)N[C@H]1Cc2ccccc2CN(CC(=O)N[C@@H](CCCN2CCC(Cc3ccccc3)CC2)C(=O)N[C@@H](Cc2ccccc2)C(N)=O)C1=O`, the half-maximal effective concentration (EC50) in experiment [1] was 11.3 nM; in experiment [3] (read-out: EC50) it was 704 nM. The maximal effect (Emax) in experiment [2] (filed as agonist) turned out to be 76%; in experiment [4], 18%.

Regarding `Cc1cc(O)cc(C)c1C[C@H](N)C(=O)N[C@H](CCCNC(=N)N)C(=O)N[C@H]1Cc2c(ccc3ccccc23)CN(CC(=O)N[C@@H](CCCN2CCC(Cc3ccccc3)CC2)C(=O)N[C@H](C(N)=O)C(C)C)C1=O`, the Emax was 102% in experiment [2] (filed as agonist) and 22% in experiment [4]. In addition, the Activity was 87% in experiment [5] (filed as antagonist), 51% in experiment [6] (filed as antagonist), 77% in experiment [7] and 77% in experiment [8] (filed as antagonist).

As for `Cc1cc(O)cc(C)c1C[C@H](N)C(=O)N[C@H](CCCCNC(=N)N)C(=O)N[C@H]1Cc2ccccc2CN(CCC(=O)N[C@@H](CCCN2CCC(Cc3ccccc3)CC2)C(=O)N[C@@H](Cc2ccccc2)C(N)=O)C1=O` (H-[Dmt][d(hArg)][X1][Nva(5-(4-Bn-piperidin-1-yl))]F-NH2), the EC50 in experiment [1] is 24 nM; in experiment [3] (hek293), “Not Active”. Moreover, in experiment [2], the maximum response (Emax) turned out to be 39%.

With `Cc1cc(O)cc(C)c1C[C@H](N)C(=O)N(C)[C@H](C)C(=O)N[C@H]1Cc2ccccc2CN(CCCC(=O)N[C@@H](CCCN2CCC(Cc3ccccc3)CC2)C(=O)N[C@@H](Cc2ccccc2)C(N)=O)C1=O` (H-[Dmt][dNMeA][X2][Nva(5-(4-Bn-piperidin-1-yl))]F-NH2), the EC50 is 10.6 nM in experiment [1] and “Not Active” in experiment [3] (hek293). The maximum response (Emax) in experiment [2] (filed as agonist) turned out to be 66%. Besides, the Activity in experiment [5] (filed as antagonist) was determined as 57%; in experiment [6] it was 12%; in experiment [7], 65%; in experiment [8] (filed as antagonist) it was 49%.

By EC50 is commonly meant the midpoint of the concentration-response curve. In general, Emax refers to the maximal effect, on the per cent scale that the assay sets.
